US12398154B2, “Azaquinazoline pan-KRas inhibitors” (Mirati Therapeutics, Inc., priority 2020, dated 2025)
Where two headings read alike, the source gives them in different places.

Columns and labels:
pERK in A549 cells = test: Inhibition of KRas phosphorylation of ERK (Cisbio HTRF pERK assay); conditions: Homo sapiens, A549, read-out: Inhibition (HTRF IC50) of KRas-mediated Phosphorylation of ERK, A549
pERK in H460 cells = test: as above; conditions: Homo sapiens, NCI-H460, read-out: Inhibition (HTRF IC50) of KRas-mediated Phosphorylation of ERK, H460
pERK in ASPC1 cells = test: as above; conditions: Homo sapiens, ASPC1, read-out: Inhibition (HTRF IC50) of KRas-mediated Phosphorylation of ERK, AsPC-1
Description: To harvest cells from flask using 0.05% Trypsin/EDTA solution. Add 10 mL of media to stop trypsinizing. Pipette the cells into a conical bottom 50 mL centrifuge tube and centrifuge 5 min×1000 rpm. • 2. Re-suspend the cell pellet in media, take a cell count, and then adjust the cell density using fresh media. • 3. Seed 6,000 cells into cell culture plate with 50 μL media. […] Incubate cell plate overnight in a 37° C., 5% CO2 incubator. • Compound titrations • 1. Use Tecan to complete the compound addition. Compounds start from 10 uM top, 3-fold dilution, and 10 doses. The final DMSO concentration is 0.8%. Dispensed 0.2 uM Trametinib as Min control. • 2. Incubate cell plate for 3 hrs in the incubator. • Detection with cisbio pERK HTRF kit • 1. […] At the end of the compound treatment, flick-off the media. • 3. Add 35 μL of lysis buffer per well using a Multidrop Combi. Then place on a plate agitator shaking at 300 rpm at 4° C. for 40 mins. • 4. Make up the HTRF antibody buffer. For each assay plate, mix 50 μL of d2-conjugate antibody with 950 μL of detection buffer. Similarly, mix 50 μL of Cryptate antibody with 950 μL of detection buffer. Then mix the two diluted antibodies together. • 5. Dispense 3.4 μL the antibody buffer to wells of an empty assay plate. Seal the plate and centrifuge plate 30 sec×1000 rpm. • 6. At the end of the 4° C. lysis, centrifuge the lysate plates 3 mins×1500 rpm. • 7. Use the Bravo to transfer 13.6 μL of lysate from cell culture plate to assay plate.
Then incubate assay plate for 2 hrs at room temperature. […] At the end of incubation, read plate on the Envision after centrifuging plate 30 sec× • 1000 rpm.

pERK in HCT116 cells = test: as above; conditions: Homo sapiens, HCT-116, read-out: Inhibition (HTRF IC50) of KRas-mediated Phosphorylation of ERK, HCT116
pERK in H727 cells = test: as above; conditions: Homo sapiens, NCI-H727, read-out: Inhibition (HTRF IC50) of KRas-mediated Phosphorylation of ERK, H727
[1] = test system: phospho-ERK in NCI-H727 (G12V) cells; test: Inhibition of KRas-mediated phosphorylation of ERK (in-cell western); format: cell-based; conditions: 3 hours compound, phospho-ERK normalized to GAPDH
Outline: (§1)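 Cells were treated with compound for 3 hours (0.5% DMSO final), then fixed with formaldehyde and permeabilized with ice-cold methanol. Phospho-ERK (Thr202/Tyr204) was detected by antibody and normalized to GAPDH per well, expressed as percent of DMSO control, and IC50 obtained by 4-parameter fit.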

[2] = test system: phospho-ERK in NCI-H460 (Q61H) cells; test: as above; format: cell-based; conditions: 3 hours compound, phospho-ERK normalized to GAPDH
Outline: as §1

[3] = test system: phospho-ERK in NCI-H358 (G12C) cells; test: as above; format: cell-based; conditions: Homo sapiens, 3 hours compound, phospho-ERK normalized to GAPDH
Outline: as §1

[4] = test system: phospho-ERK in MKN1 (WTdep) cells; test: as above; format: cell-based; conditions: Homo sapiens, MKN-1, 3 hours compound, phospho-ERK normalized to GAPDH
Outline: as §1

[5] = test system: phospho-ERK in HCT116 (G13D) cells; test: as above; format: cell-based; conditions: Homo sapiens, HCT-116, 3 hours compound, phospho-ERK normalized to GAPDH
Outline: as §1

[6] = test system: phospho-ERK in PSN-1 (G12R) cells; test: as above; format: cell-based; conditions: Homo sapiens, PSN1, 3 hours compound, phospho-ERK normalized to GAPDH
Outline: as §1

[7] = test system: phospho-ERK in A549 (G12S) cells; test: as above; format: cell-based; conditions: Homo sapiens, 3 hours compound, phospho-ERK normalized to GAPDH
Outline: as §1

[8] = test system: phospho-ERK in AsPC-1 (G12D) cells; test: as above; format: cell-based; conditions: 3 hours compound, phospho-ERK normalized to GAPDH
Outline: as §1

pERK in PSN1 cells = test: Inhibition of KRas phosphorylation of ERK (Cisbio HTRF pERK assay); conditions: Homo sapiens, PSN1, 3 h, read-out: Inhibition (HTRF IC50) of KRas-mediated Phosphorylation of ERK, PSN1
KRas G12S = KRas G12S (Homo sapiens, UniProt P01116, G12S); test: biochemical;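 further: TR-FRET displacement binding to KRas, read after one hour incubation at room temperature, IC50 from four-parameter fit of percent of control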
Description: (§2) The ability of a compound to bind to KRas was measured using a TR-FRET displacement assay. […] After a 60-minute incubation at room temperature, the reaction was measured using a BMG LABTECH CLARIO star Plus via TR-FRET. […] The POC values were fit to a 4-parameter IC50 equation and the IC50 value reported.

KRas Q61H = molecular target: T1, KRas Q61H (Homo sapiens, UniProt P01116, Q61H); test: KRas binding assay (TR-FRET displacement);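 further: TR-FRET signal read after one hour at room temperature, IC50 derived by four-parameter fitting of percent-of-control values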
T1 construct: Biotinylated KRas (corresponding to amino acids 1-169, produced at Accelegan Inc.); biotin (biotinylated); purchased Accelegan Inc
Description: as §2

pERK in MKN1 cells = test: Inhibition of KRas phosphorylation of ERK (Cisbio HTRF pERK assay); conditions: Homo sapiens, MKN-1, 3 h, read-out: Inhibition (HTRF IC50) of KRas-mediated Phosphorylation of ERK, MKN1
KRas G12R [9] = molecular target: T2, KRas G12R (Homo sapiens, UniProt P01116, G12R); test: biochemical;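 further: TR-FRET displacement assay of compound binding to KRas, read after one hour at room temperature, potency from a four-parameter fit of percent-of-control values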
Description: as §2

KRas G12A = KRas G12A (Homo sapiens, UniProt P01116, G12A); test: biochemical;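 further: binding to KRas measured by TR-FRET displacement after one hour at room temperature, IC50 from a four-parameter fit of percent-of-control values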
Description: as §2

KRas G12D = KRas G12D (Homo sapiens, UniProt P01116, G12D); test: biochemical;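 further: TR-FRET displacement binding assay on KRas, read after a one-hour incubation at room temperature, IC50 fitted from percent-of-control values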
Description: as §2

KRas WT = KRas WT (Homo sapiens, UniProt P01116); test: biochemical;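 further: binding to KRas read as TR-FRET displacement after a one-hour room-temperature incubation, IC50 derived from percent-of-control values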
Description: as §2

KRas G12V [10] = molecular target: T3, KRas G12V (Homo sapiens, UniProt P01116, G12V); test: biochemical;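 further: KRas binding measured by TR-FRET displacement at room temperature, IC50 fitted from percent of control values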
Description: as §2

KRas G12C = KRas G12C (Homo sapiens, UniProt P01116, G12C); test: biochemical;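 further: binding to KRas assessed by TR-FRET displacement after one hour incubation at room temperature, potency fitted from percent-of-control values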
Description: as §2

KRas G13D = molecular target: T4, KRas G13D (Homo sapiens, UniProt P01116, G13D); test: KRas binding assay (TR-FRET displacement);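 further: One-hour room temperature incubation before TR-FRET reading, IC50 from a four-parameter curve fit to percent-of-control data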
T4 construct: Biotinylated KRas (corresponding to amino acids 1-169, produced at Accelegan Inc.); biotin (biotinylated); purchased Accelegan Inc
Description: as §2

KRas G12R [11] = molecular target: T2, KRas G12R
Description: as §2

KRas G12V [12] = molecular target: T3, KRas G12V
Description: as §2

pERK in H358 cells = test: Inhibition of KRas phosphorylation of ERK (Cisbio HTRF pERK assay); conditions: Homo sapiens, NCI-H358, read-out: Inhibition (HTRF IC50) of KRas-mediated Phosphorylation of ERK, H358

T3 sequence (P01116 1-169 isoform P01116-2 G12V): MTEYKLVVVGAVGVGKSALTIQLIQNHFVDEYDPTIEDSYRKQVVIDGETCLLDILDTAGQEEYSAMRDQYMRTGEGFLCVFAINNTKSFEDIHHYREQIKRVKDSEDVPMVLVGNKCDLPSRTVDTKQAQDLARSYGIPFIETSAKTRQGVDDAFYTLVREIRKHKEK
KRas G12D, sequence (P01116 1-169 isoform P01116-2 G12D): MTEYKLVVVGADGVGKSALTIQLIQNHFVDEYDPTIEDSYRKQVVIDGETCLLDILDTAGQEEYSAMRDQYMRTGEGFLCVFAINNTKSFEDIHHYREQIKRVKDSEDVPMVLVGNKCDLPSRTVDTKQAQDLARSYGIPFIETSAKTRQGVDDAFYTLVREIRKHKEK
T4 sequence (P01116 1-169 isoform P01116-2 G13D): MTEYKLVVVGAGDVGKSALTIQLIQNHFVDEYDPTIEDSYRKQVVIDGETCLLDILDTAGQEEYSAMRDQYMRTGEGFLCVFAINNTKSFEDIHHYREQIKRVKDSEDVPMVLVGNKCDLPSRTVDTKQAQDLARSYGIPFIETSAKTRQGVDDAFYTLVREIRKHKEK
T2 sequence (P01116 1-169 isoform P01116-2 G12R): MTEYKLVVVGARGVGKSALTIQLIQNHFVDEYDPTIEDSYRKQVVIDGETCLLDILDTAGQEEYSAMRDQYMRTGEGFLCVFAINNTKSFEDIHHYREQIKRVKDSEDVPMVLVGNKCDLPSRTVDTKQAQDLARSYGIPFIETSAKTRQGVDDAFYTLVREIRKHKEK
T1 sequence (P01116 1-169 isoform P01116-2 Q61H): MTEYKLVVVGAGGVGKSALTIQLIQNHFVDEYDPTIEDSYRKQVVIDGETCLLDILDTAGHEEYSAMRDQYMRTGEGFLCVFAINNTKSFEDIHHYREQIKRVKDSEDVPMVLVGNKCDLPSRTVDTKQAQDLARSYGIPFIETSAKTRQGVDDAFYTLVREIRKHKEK
KRas G12S, sequence (P01116 1-169 isoform P01116-2 G12S): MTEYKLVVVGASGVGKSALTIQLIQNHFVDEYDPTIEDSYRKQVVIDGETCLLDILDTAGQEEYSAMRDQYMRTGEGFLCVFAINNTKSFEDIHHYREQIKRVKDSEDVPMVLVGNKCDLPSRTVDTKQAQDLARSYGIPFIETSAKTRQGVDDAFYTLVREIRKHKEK
KRas G12A, sequence (P01116 1-169 isoform P01116-2 G12A): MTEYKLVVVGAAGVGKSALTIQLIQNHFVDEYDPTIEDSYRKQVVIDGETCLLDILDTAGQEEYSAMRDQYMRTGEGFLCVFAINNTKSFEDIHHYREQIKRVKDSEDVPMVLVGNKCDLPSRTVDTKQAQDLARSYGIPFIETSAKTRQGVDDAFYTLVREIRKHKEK
KRas G12C, sequence (P01116 1-169 isoform P01116-2 G12C): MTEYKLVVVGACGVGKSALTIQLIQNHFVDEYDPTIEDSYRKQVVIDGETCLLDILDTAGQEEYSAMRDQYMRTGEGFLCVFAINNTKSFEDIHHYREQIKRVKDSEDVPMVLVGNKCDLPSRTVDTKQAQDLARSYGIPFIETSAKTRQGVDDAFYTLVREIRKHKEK
KRas WT, sequence (P01116 1-169 isoform P01116-2): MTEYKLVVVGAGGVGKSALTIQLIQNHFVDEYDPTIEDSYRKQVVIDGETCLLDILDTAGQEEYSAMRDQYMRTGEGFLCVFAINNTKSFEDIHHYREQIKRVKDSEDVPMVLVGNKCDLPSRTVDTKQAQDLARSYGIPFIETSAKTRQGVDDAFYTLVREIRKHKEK

Row | Structure (SMILES) | IC50 (pERK in A549 cells) [nM] | IC50 (pERK in H460 cells) [nM] | IC50 (pERK in ASPC1 cells) [nM] | IC50 (pERK in HCT116 cells) [nM] | IC50 (pERK in H727 cells) [nM] | IC50 (pERK in PSN1 cells) [nM] | IC50 (KRas Q61H) [nM] | IC50 (pERK in MKN1 cells) [nM] | IC50 (KRas G12R [9]) [nM] | IC50 (KRas G12D) [nM] | IC50 (KRas G12V [10]) [nM] | IC50 (KRas G13D) [nM] | IC50 ([1]; Homo sapiens, NCI-H727, 3 h) [nM] | IC50 ([2]; Homo sapiens, NCI-H460, 3 h) [nM] | IC50 [3] [nM] | IC50 [4] [nM] | IC50 [5] [nM] | IC50 [6] [nM] | IC50 [7] [nM] | IC50 ([8]; Homo sapiens, ASPC1, 3 h) [nM] | also measured
1 | CCc1c(F)ccc2cc(O)cc(-c3ncc4c(N5CCOCC(C)(O)C5)nc(OC[C@@]56CCCN5C[C@H](F)C6)nc4c3F)c12 (some centres unmarked) [Example 63] | 19 | 21 | 4 | 63 | 28 |  |  |  |  |  |  |  | 56 | 38 | 27 | 5 | 44 | 1040 | 139 | 15 | 
2 | CCc1c(F)ccc2cc(O)cc(-c3ncc4c(N5CCC[C@@](C)(O)C5)nc(OC[C@@H]5CCCN5C)nc4c3F)c12 [Example 28, (3R)-1-[7-(8-ethyl-7-fluoro-3-hydroxy-1-naphthyl)-8-fluoro-2-[[(2S)-1-methylpyrrolidin-2-yl]methoxy]pyrido[4,3-d]pyrimidin-4-yl]-3-methyl-piperidin-3-ol] | 156 | 101 | 20 | 155 | 159 | 7250 | 3 | 21 | 3 | 3 | ≤ 2 | 3 | 308 | 54 | 60 | 24 | 153 | ≥ 10000 | 523 | 78 | IC50 (KRas G12S): ≤ 2 nM; IC50 (KRas G12A): ≤ 2 nM; IC50 (KRas WT): 3 nM; IC50 (KRas G12C): ≤ 2 nM
3 | CCc1c(F)ccc2cc(O)cc(-c3ncc4c(N5CCCC6(CC(=O)N6)C5)nc(OC[C@@]56CCCN5C[C@H](F)C6)nc4c3F)c12 (some centres unmarked) [Example 57] | 175 | 119 | 32 | 2010 | 55 |  | ≤ 2 |  | ≤ 2 | ≤ 2 | ≤ 2 | 3 | 115 | 119 | 50 | 22 | 1080 | 4140 | 668 | 82 | 
4 | C#Cc1c(F)ccc2cc(O)cc(-c3ncc4c(N5CCC[C@@](C)(O)C5)nc(OC[C@@]56CCCN5C[C@H](F)C6)nc4c3F)c12 [Example 13] | 43 | 27 | 4 | 33 | 13 | 1090 | ≤ 2 | 5 | ≤ 2 | ≤ 2 | ≤ 2 | ≤ 2 | 44 | 13 | 11 | 10 | 42 | 773 | 140 | 18 | IC50 (KRas G12S): ≤ 2 nM; IC50 (KRas G12A): ≤ 2 nM; IC50 (KRas WT): ≤ 2 nM; IC50 (KRas G12C): ≤ 2 nM

The next lines start with results.

Row | IC50 (pERK in A549 cells) [nM] | IC50 (pERK in H460 cells) [nM] | IC50 (pERK in ASPC1 cells) [nM] | IC50 (pERK in HCT116 cells) [nM] | IC50 (pERK in H727 cells) [nM] | IC50 (pERK in PSN1 cells) [nM] | IC50 (KRas Q61H) [nM] | IC50 (pERK in MKN1 cells) [nM] | IC50 (KRas G12R [9]) [nM] | IC50 (KRas G12D) [nM] | IC50 (KRas G12V [10]) [nM] | IC50 (KRas G13D) [nM] | Structure (SMILES) | IC50 ([1]; Homo sapiens, NCI-H727, 3 h) [nM] | IC50 ([2]; Homo sapiens, NCI-H460, 3 h) [nM] | IC50 [3] [nM] | IC50 [4] [nM] | IC50 [5] [nM] | IC50 [6] [nM] | IC50 [7] [nM] | IC50 ([8]; Homo sapiens, ASPC1, 3 h) [nM] | also measured
5 | 290 | 180 | 25 | 276 | 111 |  |  |  | 3 | 4 | ≤ 2 |  | C#Cc1c(F)ccc2cc(O)cc(-c3ncc4c(N5CCOCC(C)(O)C5)nc(OC[C@@]56CCCN5C[C@H](F)C6)nc4c3F)c12 (some centres unmarked) [Example 149] | 206 | 71 | 10 | 16 | 292 | 1760 | 83 | 9 | 
6 |  |  |  |  |  | ≥ 10000 |  | 53 |  | 4 |  |  | CCc1c(F)ccc2cc(O)cc(-c3ncc4c(N5C[C@H](O)C[C@@H](O)C5)nc(OC[C@@]56CCCN5C[C@H](F)C6)nc4c3F)c12 [Example 296, (3R,5R)-1-(7-(8-ethyl-7-fluoro-3-hydroxynaphthalen-1-yl)-8-fluoro-2-(((2R,7aS)-2-fluorohexahydro-1H-pyrrolizin-7a-yl)methoxy)pyrido[4,3-d]pyrimidin-4-yl)piperidine-3,5-diol] |  |  |  |  |  |  |  |  | IC50 (KRas G12R [11]): ≤ 2 nM; IC50 (KRas G12V [12]): ≤ 2 nM; IC50 [1]: 2080 nM; IC50 [2]: 619 nM; IC50 [8]: 2200 nM
7 | 15 | 22 | 15 | 106 | 16 | 2320 |  | 6 | ≤ 2 | ≤ 2 | ≤ 2 |  | CCc1c(F)ccc2cc(O)cc(-c3ncc4c(N5CC6CC(O)C(C6)C5)nc(OC[C@@]56CCCN5C[C@H](F)C6)nc4c3F)c12 (some centres unmarked) [Example 82] | 65 | 180 | 3 | 10 | 216 | 1740 | 25 | 18 | IC50 (pERK in H358 cells): 10 nM
